# PMC5078989, “Targeted inhibition of the COP9 signalosome for treatment of cancer” (Nature Communications, 2016)
# Tests used:
# HCT116 cells = assay: Immunoblotting of cullins, CRL components and substrates in HCT116 cells; assay type: cell-based, human; details: qualitative western blot analysis
# Protocol: Figure 2 CSN5 inhibition results in the inactivation of a subset of CRLs and the stabilization of their substrates. Effect on CRL components and substrates after treatment of HCT116 cells with either 1 μM MLN4924 or 1 μM CSN5i-3. (a) Immunoblottings for Cul1 and its CRL components Rbx and Skp1; (b) for cullins Cul2, Cul3 and Cul4A; (c) for F-box protein Skp2 and the SCF^Skp2 substrates p21 and p27; (d) for F-box proteins Fbxo22 and Fbxo30; (e) for F-box protein βTrCP and the SCF^βTrCP substrates Wee1 and pIκBα; (f) for the adaptor KEAP1 and the Cul3^KEAP1 substrate Nrf2; (g) for F-box proteins Fbxw7 and Fbxo3.
# Cells were maintained in a humidified incubator at 37 °C and 5% CO2. HCT116 cells (ATCC #CCL-247) were grown in McCoy's 5A medium (GIBCO #16600–082) supplemented with 10% fetal bovine serum (FBS), TE-1 (RIKEN BioResource Center, #RCB1894), NCI-H2030 (ATCC #CRL-591), SU-DHL-1 (DMSZ #ACC 356), NOMO-1 (HSRRB #IFO50474) and NCIH196 cells (ATCC, #CRL-5823) in RPMI-1640 medium (GIBCO#61870–010) supplemented with 10% FBS, 10 mM HEPES, 1 mM sodium pyruvate and THP-1 cells (ATCC #TIB-202) with additional 0.05 mM 2-mercaptoethanol. DMS273 cells (ECACC #950628) were cultured in Waymouth's MB 752/1 medium (GIBCO#11220–035) supplemented with 10% FBS. All cells were negatively tested for mycoplasma contamination either by the vendor or in house. For treatment with compounds, sub-confluent cells were either treated with inhibitors at the indicated concentrations or mock treated with an equivalent amount of DMSO (final content 0.1%). If not stated otherwise, cells were harvested after incubation for 16 h and subjected to SDS–PAGE and western blotting. The RNA interference experiment was performed with CSN5 stealth siRNA (#HSS116986) and stealth negative control siRNA (#12935–400) (Invitrogen), which were transfected at 10 nM into HCT116 cells using HiperFect (Qiagen) according to the manufacturer's protocols. Seventy-two hours after transfection, cells were harvested and subjected to SDS–PAGE and western blotting (see Supplementary Fig. 7 for all western blottings performed).
# For further analysis, cell lysates were prepared by direct lysis with 2 × Sample buffer (65.8 mM Tris-HCl, pH 6.8, 2.1% SDS, 26.3% glycerol, 0.01% bromophenol blue and 20 mM DTT). Protein lysates from tumour powder were prepared in RIPA buffer (50 mM Tris-HCl pH 8.0, 150 mM NaCl, 1% Triton X-100, 2 mM EDTA, 0.5% sodium deoxycholate and 0.1% SDS) supplemented with 10 mM N-ethylmaleimide, protease inhibitor and phosphatase inhibitor cocktails (Roche Diagnostics). Cells from longer compound incubations were also lysed in RIPA buffer, which allows the protein concentration to be determined by BCA Protein Assay Kit (Pierce). Proteins were separated by SDS–PAGE using 4–20% Tris-Glycine Gels (Invitrogen) and subsequently transferred to polyvinylidene difluoride membranes using a Trans-Blot Turbo System (BioRad). […] Horseradish peroxidase-conjugated secondary antibodies (1:3,000) were purchased from Promega AG and bound antibody was detected by enhanced chemiluminescence (Pierce).
# [1] = test system: panel of cancer cell lines; assay: Cell viability (CellTiter-Glo) dose-response across cancer cell line panel; assay type: cell-based, human; details: SNB-19;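 further: after 72 h compound incubation with CellTiter-Glo ATP readout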
# From the text: Next, we explored the effect of CSN5 inhibition on the viability of cancer cells. To obtain a comprehensive picture, we generated dose–response curves with a CSN5 inhibitor across more than 500 cancer cell lines in a previously described standardized setting[47] (Supplementary Data 1).
# A standardized CellTiter-Glo Assay (Promega #G7570) based on the quantification of ATP was applied according to the manufacturer's protocol to measure the amount of viable cells in culture. In brief, cells were seeded into 384-well plates at optimal density for each cell line. After 4 h, compounds were added at different concentrations in growth medium and incubated for another 72 h in a humidifying chamber at 37 °C and 5% CO2. […] EC50 values were calculated from the plot of percentage of inhibition versus inhibitor concentration using the nonlinear regression analysis software Origin 7.5SR6 (OriginLab Corp.).
EC50 [1],Structure (SMILES),cullin-1 (Cul1) deneddylation in HCT116 cells (HCT116 cells)
–,"N#Cc1ccc([C@H]2[C@@H](O)CCCc3cncn32)c(-c2ccccc2)c1 (relative stereo) [CSN5i-1a, Cis-6-(6-Hydroxy-6,7,8,9-tetrahydro-5H-imidazo[1,5-a]azepin-5-yl)-[1,1′-biphenyl]-3-carbonitrile]",weakly inhibited
9.53 nM,CC(C)C[C@H](NC(=O)[C@H](Cc1ccccc1)NC(=O)c1cnccn1)B(O)O [Botezomib],–
